Entries after “also recorded” stand apart in the source; their conditions may differ.
What was measured:
[1] = Enzymatic stability in plasma, HPLC; type: in vitro ADME; conditions: plasma specimen, 37° C., in the dark; read-out: Plasma T½ (converted)
Method: For the stability study, the solutions of pro-drug were prepared by dissolving an aliquot of Ketogal in a phosphate buffer at pH 7.4, or else in a solution of HCl 0.1 N (pH 1), as regards chemical stability, or else in a plasma specimen, for enzymatic stability. The solutions were kept in the dark, at a temperature of 37° C., for 24 hours. After each hour an aliquot of specimen was taken. In the case of plasma, said aliquot was previously extracted with acetonitrile (1:2), “vortexed” and centrifuged at 3000 r.p.m. for 10 min. The supernatant was taken and used for analysis at HPLC with diode detector. The half-lives for chemical stability and enzymatic stability were calculated by quantizing, in time, the percentage of pro-drug that remained in solution. For the chromatographic separations, a 1090L HPLC (Hewlett-Packard, Palo Alto, USA) was used, coupled to a diode detector HP 1040A. A Phenomenex Luna C18 (250×4.6 mm, 5 μm) column was used. The wavelength used was 313 nm. The mobile phase was constituted by acetonitrile and an aqueous solution of phosphoric acid […] (pH 3) in the ratio of 68:32. The flow was 1 mL/min, with an injection volume of 20 μl. All the reagents and the solvents used were of analytical degree. The distilled and deionized water was purified by means of a Milli Q system (Millipore). […] The straight line of calibration for quantification of the compounds was constructed using standard solutions with concentrations of between 0.1 and 100 μg/ml. […]
For the study of the stability, the solutions of pro-drug were prepared by dissolving an aliquot of Flugal in a phosphate buffer at pH 7.4, as regards chemical stability, or else in a plasma specimen, for enzymatic stability. […] The half-lives for the chemical stability and enzymatic stability were calculated by quantizing, in time, the percentage of pro-drug that remained in solution. […] For the quantitative determination reading was made at 250 nm. […] The straight line of calibration for the quantification of the compounds was constructed using standard solutions with concentrations of between 0.1 and 100 μg/ml. […]

[2] = test system: mouse carrageenan paw oedema; experiment: Carrageenan oedema test; type: in vivo, mice
Method: Anti-inflammatory activity was tested by means of the carrageenan oedema test. The mice were divided into groups of six. The initial volumes of the leg of all the animals were measured using a plethysmometer. The oedema is induced in the leg by means of sub-plantar injection of 50 μl of saline solution containing 1% of carrageenan. The volume of the leg was measured at different time intervals. Said experimental model consists of two phases: a first, acute, phase lasting 6 hours and a second, chronic, phase, up to 72 hours.
The anti-inflammatory activity of the physical mixture of ketorolac and galactose was evaluated with the carrageenan induced mice hind paw edema assay, as described for ketogal. […]
The carrageenan induced mice hind paw oedema assay described by D'Agostino et al. (2007) was used to evaluate the acute anti-inflammatory activity of the conjugate. Mice were divided into control and test groups of six animals each. Initial paw volumes of all animals were measured using a plethysmometer apparatus (Ugo Basile, Milan, Italy) before treatment. Paw oedema was induced by a subplantar injection of 50 μL of saline containing 1% λ-carrageenan into the right hind paw. […] free acid and ketogal were orally administrated 1 h before carrageenan challenge. Paw volume was measured at different time intervals by plethysmometer. The increase in paw volume was evaluated as the difference between the paw volume measured at each time point and the basal paw volume measured immediately before carrageenan injection.

male Swiss mice [3] = experiment: Chronic and sub-chronic experiments: liver, kidney and stomach examination; type: in vivo
Method: (§1) Animals were sacrificed and then liver, stomach and kidney were collected in glass tubes and analysed histologically and biochemically.
(§2) Liver samples were fixed in 10% buffered formalin and embedded in paraffin, sliced, and stained with hematoxylin & eosin (H&E) for assessment of liver pathology. […] To confirm histological data, western blot analysis for TNF-alpha, IL-6 and malonyldialdehyde assay were then performed in liver lysates.

lipid peroxidation = experiment: Malonyldialdehyde assay in liver lysates; type: in vivo, mice; conditions: ketogal 16.3 mg/Kg oral for 3, 5 and 7 days
Method: as §1, §2

IL-6 = experiment: Western blot in liver lysates, IL-6; type: in vivo, mice; conditions: ketogal 16.3 mg/Kg oral for 3, 5 and 7 days
Method: as §1, §2

male Swiss mice [4] = experiment: Ulcerogenicity studies, ketorolac and Ketogal (gastric lesions); type: in vivo; conditions: oral, Ketogal 16.3 mg/kg
Method: The gastric lesions were evaluated in male Swiss mice. To the fasted animals (16-18 h) were administered, by oral route, ketorolac (10 mg/kg), Ketogal (16.3 mg/kg), or the vehicle. After 4 hours, the mice were sacrificed and the stomach removed, cut along the major curvature, washed with physiological solution, and the mucous was examined for evaluation of the presence of petechias and/or gastric lesions. A “score” of 1 was assigned to the petechias, and a “score” based on the diameter (a “score” of 5 for lesions of a diameter of less than 1 mm; a “score” of 10 for lesions with a diameter of more than 1 mm) was, instead, assigned to the lesions.

O=C(c1ccccc1)c1ccc2n1CC[C@@H]2C(=O)OCC1O[C@H](O)C(O)C(O)[C@H]1O (mixture of isomers) [Ketogal, ketorolac-D-galactos-6′-yl ester]
half-life [1]: 1.5 h | Anti-inflammatory activity compared with ketorolac ([2]; Ketogal 0.163 mg/kg versus ketorolac 0.1 mg/kg, oral and subcutaneous administration): better analgesic and anti-inflammatory activity than ketorolac | Oedema of the leg ([2]; Ketogal 0.163-16.3 mg/kg oral, 1 h prior to carrageenan): considerably reduces the oedema of the leg in a time-dependent and dose-dependent way | Formation of oedema, first phase ([2]; Ketogal 0.163-16.3 mg/kg oral, first, acute phase (6 hours)): all the doses tested inhibited formation of oedema | Effect on oedema, second phase ([2]; Ketogal oral, second, chronic phase up to 72 hours): continued also in the second phase | Liver histology (H&E) (male Swiss mice [3]; ketogal 16.3 mg/Kg oral for 3, 5 and 7 days): normal liver histology | Hepatic inflammation and/or damage (biochemical analysis) (male Swiss mice [3]; ketogal 16.3 mg/Kg oral for 3, 5 and 7 days, liver lysates): no hepatic inflammation and/or damage | Kidney histology (male Swiss mice [3]; ketorolac 10 mg/Kg, ketogal 16.3 mg/Kg, oral, after 3, 5 and 7 days): normal kidney histology | Stomach samples, ulcerogenicity (male Swiss mice [3]; ketorolac 10 mg/Kg, ketogal 16.3 mg/Kg, oral, for 3 days): undamaged and similar to control | Lipid peroxidation level in liver (malonyldialdehyde) (lipid peroxidation): no different compared to control mice | IL-6 level in liver (IL-6): no different compared to control mice | Gastrolesive properties (in words) (male Swiss mice [4]; equimolar to ketorolac 10 mg/kg): does not cause ulcers; also recorded: only a slight irritation of the gastric mucosa, with an almost total absence of ulcers | Degree of ulcerogenicity (male Swiss mice [4]; ketorolac 10.0 mg/kg, after 4 hours, score 1 petechias, 5 or 10 lesions): 1 | Number of ulcers (male Swiss mice [4]; ketorolac 10.0 mg/kg, fasted mice, after 4 hours): 1 ± 0.4

Reference: patent publication US8551958B2, “Galactosylated pro-drugs of non-steroidal anti-inflammatories with improved pharmacokinetic characteristics and reduced toxicity of the starting drug” (Stewart Italia Srl, priority 2008, dated 2013)
